Source: US20240285971A1, “Intratumoral Alpha-Emitter Radiation in Combination with Vasculature Inhibitors” (priority 2021, published 2024)

Tested on: Glioblastoma Multiforme (GBM) xerographs, U87 cells
Experiment: DaRT with systemic BEV on U87 GBM xenografts, BEV started five days post seed insertion (FIG. 3)
Type: in vivo, athymic nude mice
Details: U87 intracutaneous flank tumors; single seed in tumor; BEV or IgG 5 mg/kg i.p., 3 doses per week for 3 weeks, from five days post seed insertion; compared with other groups
Experimental: In the experiment, the efficacy of DaRT with a systemic administration of BEV was tested on Glioblastoma Multiforme (GBM) xerographs. U87 cells were intracutaneously inoculated in a total of 5·10^6 cells per mouse (in a volume of 100 μl) to the flank of athymic nude mice. The tumors were allowed to grow to an average size of 5-6 mm (longest diameter) for 9 days, when either a single DaRT or inert (non-radioactive control) seed was inserted to the middle of each tumor. Five days post seed insertion, each mouse received an i.p (intraperitoneal) administration of either IgG (control antibody) or BEV. This administration included 3 doses per week (5 mg/kg each) for 3 consecutive weeks (a total of 9 doses). The mice were divided to 4 treatment groups as follows: • a. Inert+Control IgG (untreated control); • b. Inert+BEV (Bev as a monotherapy); • c. DaRT+Control IgG (DaRT as a monotherapy); • d. DaRT+BEV (The combined modality)
Tumor volumes were monitored 3 times per week, along with radioactivity measurement using a Geiger counter to confirm that the DaRT seeds are present in the tumor.

Substance: Bevacizumab
- tumor growth / tumor volume: moderate but significant attenuation in tumor growth
